Source: US8278343B2, “Pyrrolidines” (Pfizer Inc., priority 2008, dated 2012)

Target: T1, recombinant human EP-2 receptor (Homo sapiens, UniProt P43116)
T1 construct: stably transfected with full length cDNA encoding human Prostaglandin E2; expressed in transfected cells
Test: In vitro antagonist potency against recombinant human prostaglandin E2 (EP-2) receptor in CHO cells (cAMP, Protocol 1)
Format: cell-based
Details: CHO cells expressing recombinant human EP-2 receptor, stimulated with 5 nM PGE2; cAMP readout; Ki by Cheng-Prusoff equation; read-out: EP2 Ki
Experimental: 1.0 Measurement of In Vitro Antagonist Potency (IC50) of Compounds Against Recombinant Human Prostaglandin E2 Receptor in CHO Cells
The prostaglandin E2 (EP-2) receptor is Gs coupled and agonism of the receptor by PGE2 results in activation of intracellular adenylate cyclase enzymes that synthesise the second messenger signalling molecule, adenosine 3′,5′-cyclic monophosphate (cAMP). CHO cells expressing the recombinant human EP-2 receptor are stimulated with PGE2 (5 nM) equivalent to approximately […] values to give the maximal cAMP signal. Decreases in cAMP levels following treatment of stimulated recombinant EP-2 cells with potential antagonist compounds were measured and potency (IC50) calculated as follows.
A Chinese hamster ovary (CHO) cell line stably transfected with full length cDNA encoding human Prostaglandin E2 was established using standard molecular biology methods. Test compounds were dissolved in dimethyl sulphoxide (DMSO) at 4 mM. 11 point half log unit increment dilution series of test compound were prepared in DMSO then diluted 1 in 40 in a buffer comprised of phosphate buffered saline (PBS) and 0.05% pluronic F-127 surfactant. Freshly cultured cells at 80-90% confluence were harvested and re-suspended in 90% growth media/10% DMSO. The cells were frozen using a planar freezer and stored in frozen aliquots in cryovials in liquid nitrogen until the day of the experiment. A vial of cells was defrosted in a 37° C. water bath for 2 min, then transferred to 10 ml of Dulbecco's Modified Eagle's Medium (DMEM). The cells were then centrifuged for 5 min at 1000 g and the pellet re-suspended at 1,000,000 cells/ml in DMEM. 5,000 cells (5 ul) were added to 5 ul of the compound dilution series in a 384 well assay plate and pre-incubated for 30 min at 37° C. 5 ul of agonist (15 nM PGE2 in PBS to give 5 nM FAC) was added and plates further incubated for 90 min at 37° C. The relative cAMP concentration in each well was then measured using a β-galactosidase enzyme fragment complementation method purchased in kit form as the Discoverx cAMP II kit from GE Healthcare, UK. […] Sigmoidal curves were fitted to plots of log10 inhibitor concentration vs percent effect. IC50 estimates were determined as the concentration of test compound giving an effect half way between the bottom and top asymptotes of the sigmoidal dose response curve. Each experiment included an IC50 determination for the literature compound as a standard to track assay consistency and allow fair comparison between values obtained in different experiments. The EC50 of PGE2 is used in combination with the ligand concentration in the assay to determine Ki values for antagonist dose responses using the Cheng-Prusoff equation. Consequently an agonist dose response curve is carried out for each experiment using the same incubation as the antagonist plate.

T1 sequence (P43116 whole entry): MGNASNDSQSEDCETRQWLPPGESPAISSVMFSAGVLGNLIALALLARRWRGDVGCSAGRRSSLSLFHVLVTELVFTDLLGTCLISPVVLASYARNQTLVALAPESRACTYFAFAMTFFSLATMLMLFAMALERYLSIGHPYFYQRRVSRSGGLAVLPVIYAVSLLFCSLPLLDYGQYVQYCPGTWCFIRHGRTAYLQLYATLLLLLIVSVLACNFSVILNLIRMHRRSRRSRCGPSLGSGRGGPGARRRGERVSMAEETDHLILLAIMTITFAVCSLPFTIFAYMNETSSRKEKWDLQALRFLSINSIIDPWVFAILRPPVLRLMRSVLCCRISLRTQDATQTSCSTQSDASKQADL

| SMILES | Ki |
| --- | --- |
| COc1ccc(C(=O)N2CCC(COc3ccc(-c4ccc(C#N)cc4)cc3)(C(=O)O)C2)cc1 (single isomer, unassigned) [Example 1, 3-(4′-Cyano-biphenyl-4-yloxymethyl)-1-(4-methoxy-benzoyl)-pyrrolidine-3-carboxylic acid] | 0.633 nM |
| N#Cc1ccc(-c2ccc(OCC3(C(=O)O)CCN(C(=O)c4ccc(F)cc4)C3)cc2)cc1 (single isomer, unassigned) [Example 2, 3-(4′-Cyano-biphenyl-4-yloxymethyl)-1-(4-fluoro-benzoyl)-pyrrolidine-3-carboxylic acid] | 0.344 nM |
| O=C(c1ccc(F)cc1)N1CCC(COc2cnc(-c3ccc(Cl)cc3)nc2)(C(=O)O)C1 (single isomer, unassigned) [Example 5] | 1.64 nM |
| O=C(c1ccc(F)cc1)N1CCC(COc2cnc(-c3ccc(Cl)cc3)nc2)(C(=O)O)C1 (single isomer, unassigned) [Example 6] | 102 nM |
| O=C(c1ccc(F)cc1)N1CCC(COc2ccc(-c3ccc(Cl)cc3)nc2)(C(=O)O)C1 (single isomer, unassigned) [Example 7] | 2.97 nM |
| O=C(c1ccc(F)cc1)N1CCC(COc2cnc(-c3ccc(Cl)cc3)cn2)(C(=O)O)C1 (single isomer, unassigned) [Example 10] | 0.741 nM |
| O=C(c1ccc(F)cc1)N1CCC(COc2cnc(-c3ccc(Cl)cc3)cn2)(C(=O)O)C1 (single isomer, unassigned) [Example 11] | 28.9 nM |
| O=C(c1ccc(F)cc1)N1CCC(COc2ccc(-c3ccc(Cl)cn3)cc2)(C(=O)O)C1 (single isomer, unassigned) [Example 12] | 4.82 nM |
| O=C(c1ccc(F)cc1)N1CCC(COc2ccc(-c3ccc(Cl)cn3)cc2)(C(=O)O)C1 (single isomer, unassigned) [Example 13] | 333 nM |
| O=C(c1ccc(F)cc1)N1CCC(COc2cccc(F)c2F)(C(=O)O)C1 (single isomer, unassigned) [Example 14] | 522 nM |
| O=C(c1ccc(F)cc1)N1CCC(COc2ccc(-c3ncc(Cl)cn3)cc2)(C(=O)O)C1 (single isomer, unassigned) [Example 15] | 84.7 nM |
| O=C(c1ccc(F)cc1)N1CCC(COc2ccc(-c3ncc(Cl)cn3)cc2)(C(=O)O)C1 (single isomer, unassigned) [Example 16] | 0.692 nM |
| O=C(c1ccc(F)cc1)N1CCC(COc2ccc(-c3ccc(F)cc3)cc2)(C(=O)O)C1 (single isomer, unassigned) [Example 17] | 2.01 nM |
| O=C(c1ccc(F)cc1)N1CCC(COc2ccc(-c3ccc(F)cc3)cc2)(C(=O)O)C1 (single isomer, unassigned) [Example 18] | 17.2 nM |
| O=C(c1ccc(F)cc1)N1CCC(COc2ccc(F)c(Cl)c2)(C(=O)O)C1 (single isomer, unassigned) [Example 25] | 192 nM |
| N#Cc1ccc(-c2ccc(OCC3(C(=O)O)CCN(C(=O)c4ccc(Cl)cc4)C3)cc2)cc1 (single isomer, unassigned) [Example 26] | 0.0376 nM |
| N#Cc1ccc(-c2ccc(OCC3(C(=O)O)CCN(C(=O)c4ccc(Cl)cc4)C3)cc2)cc1 (single isomer, unassigned) [Example 27] | 4.34 nM |
| O=C(c1ccc(Cl)cc1)N1CCC(COc2ccc(-c3ncc(Cl)cn3)cc2)(C(=O)O)C1 (single isomer, unassigned) [Example 30] | 0.461 nM |
| O=C(c1ccc(Cl)cc1)N1CCC(COc2ccc(-c3ncc(Cl)cn3)cc2)(C(=O)O)C1 (single isomer, unassigned) [Example 31] | 282 nM |
| O=C(c1ccc(Cl)cc1)N1CCC(COc2ccc(-c3ccc(Cl)cc3)nc2)(C(=O)O)C1 (single isomer, unassigned) [Example 32] | 0.735 nM |
| O=C(c1ccc(Cl)cc1)N1CCC(COc2ccc(-c3ccc(Cl)cc3)nc2)(C(=O)O)C1 (single isomer, unassigned) [Example 33] | 141 nM |
| O=C(c1ccc(Cl)cc1)N1CCC(COc2cnc(-c3ccc(Cl)cc3)cn2)(C(=O)O)C1 (single isomer, unassigned) [Example 34] | 0.743 nM |
| O=C(c1ccc(Cl)cc1)N1CCC(COc2cnc(-c3ccc(Cl)cc3)cn2)(C(=O)O)C1 (single isomer, unassigned) [Example 35] | 105 nM |
| O=C(c1ccc(Cl)cc1)N1CCC(COc2ccc(-c3ccc(F)cc3)cc2)(C(=O)O)C1 (single isomer, unassigned) [Example 36] | 1.16 nM |

| SMILES | Ki |
| --- | --- |
| O=C(c1ccc(Cl)cc1)N1CCC(COc2ccc(-c3ccc(F)cc3)cc2)(C(=O)O)C1 (single isomer, unassigned) [Example 37] | 30.3 nM |
| COc1ccc(C(=O)N2CCC(COc3cnc(-c4ccc(Cl)cc4)cn3)(C(=O)O)C2)cc1 (single isomer, unassigned) [Example 38] | 3.08 nM |
| COc1ccc(C(=O)N2CCC(COc3cnc(-c4ccc(Cl)cc4)cn3)(C(=O)O)C2)cc1 (single isomer, unassigned) [Example 39] | 48.1 nM |
| COc1ccc(C(=O)N2CCC(COc3ccc(-c4ccc(F)cc4)cc3)(C(=O)O)C2)cc1 (single isomer, unassigned) [Example 40] | 2.36 nM |
| COc1ccc(C(=O)N2CCC(COc3ccc(-c4ccc(F)cc4)cc3)(C(=O)O)C2)cc1 (single isomer, unassigned) [Example 41] | 66.9 nM |
| COc1ccc(C(=O)N2CCC(COc3ccc(-c4ncc(Cl)cn4)cc3)(C(=O)O)C2)cc1 (single isomer, unassigned) [Example 42] | 2.93 nM |
| COc1ccc(C(=O)N2CCC(COc3ccc(-c4ncc(Cl)cn4)cc3)(C(=O)O)C2)cc1 (single isomer, unassigned) [Example 43] | 145 nM |
| COc1ccc(C(=O)N2CCC(COc3ccc(-c4ccc(Cl)cc4)nc3)(C(=O)O)C2)cc1 (single isomer, unassigned) [Example 44] | 3.83 nM |
| COc1ccc(C(=O)N2CCC(COc3ccc(-c4ccc(Cl)cc4)nc3)(C(=O)O)C2)cc1 (single isomer, unassigned) [Example 45] | 170 nM |
| COc1ccc(C(=O)N2CCC(COc3ccc(-c4ccc(Cl)cn4)cc3)(C(=O)O)C2)cc1 (single isomer, unassigned) [Example 46] | 23.7 nM |
| COc1ccc(C(=O)N2CCC(COc3ccc(-c4ccc(Cl)cn4)cc3)(C(=O)O)C2)cc1 (single isomer, unassigned) [Example 47] | 226 nM |
| COc1ccc(C(=O)N2CCC(COc3cnc(-c4ccc(Cl)cc4)nc3)(C(=O)O)C2)cc1 (single isomer, unassigned) [Example 49] | 124 nM |
| COc1ccc(C(=O)N2CCC(COc3cnc(-c4ccc(Cl)cc4)nc3)(C(=O)O)C2)cc1 (single isomer, unassigned) [Example 50] | 1.88 nM |
| CCOc1ccccc1C(=O)N1CCC(COc2cnc(-c3ccc(Cl)cc3)cn2)(C(=O)O)C1 (single isomer, unassigned) [Example 51] | 19.3 nM |
| CCOc1ccccc1C(=O)N1CCC(COc2cnc(-c3ccc(Cl)cc3)cn2)(C(=O)O)C1 (single isomer, unassigned) [Example 52] | 134 nM |
| CCOc1ccccc1C(=O)N1CCC(COc2ccc(-c3ccc(F)cc3)cc2)(C(=O)O)C1 (single isomer, unassigned) [Example 53] | 17.5 nM |
| CCOc1ccccc1C(=O)N1CCC(COc2ccc(-c3ccc(F)cc3)cc2)(C(=O)O)C1 (single isomer, unassigned) [Example 54] | 389 nM |
| CCOc1ccccc1C(=O)N1CCC(COc2ccc(-c3ncc(Cl)cn3)cc2)(C(=O)O)C1 (single isomer, unassigned) [Example 55] | 28.9 nM |
| CCOc1ccccc1C(=O)N1CCC(COc2ccc(-c3ncc(Cl)cn3)cc2)(C(=O)O)C1 (single isomer, unassigned) [Example 56] | 466 nM |
| CCOc1ccccc1C(=O)N1CCC(COc2cnc(-c3ccc(Cl)cc3)nc2)(C(=O)O)C1 (single isomer, unassigned) [Example 57] | 29.4 nM |
| CCOc1ccccc1C(=O)N1CCC(COc2cnc(-c3ccc(Cl)cc3)nc2)(C(=O)O)C1 (single isomer, unassigned) [Example 58] | 884 nM |
| COc1ccccc1C(=O)N1CCC(COc2cnc(-c3ccc(Cl)cc3)cn2)(C(=O)O)C1 (single isomer, unassigned) [Example 59] | 98.1 nM |
| COc1ccccc1C(=O)N1CCC(COc2ccc(-c3ccc(C#N)cc3)nc2)(C(=O)O)C1 (single isomer, unassigned) [Example 61] | 26.2 nM |
